Several values for one entry are separate records, joined by “and”; a condition that tells them apart may be missing. Equal entries are not always repeated.
Legend:
[1] = molecular target: human L-asparaginase 1 (hASNase1), wild type, SEQ ID NO:2 (Homo sapiens, UniProt Q86U10); assay: L-asparaginase kinetics, NADH-dependent enzyme-coupled assay; format: biochemical
Experimental: (§1) The catalytic activity of the clones was determined using a spectroscopic NADH-dependent enzyme-coupled assay (Fernandez, et al. (2013) Int. J. Clin. Exp. Med. 6:478-487; Hejazi, et al. (2002) Biochem. J. 364:129-136), which measures the production of L-aspartic acid (Asp) through the 1:1 oxidation of reduced NADH. The conversion of NADH to NAD was measured spectrophotometrically as a decrease in absorbance at 340 nm at 37° C. All measurements were taken in triplicate in a buffer containing 100 mM Tris pH 7.5, 0.4 mM α-ketoglutarate and 0.4 mM NADH with 50 nM (hASNase1, hN-gC); 10 nM (gpASNase1, gN-hC, 63-hC, 64-hC, 65-hC, SA-hC) or 3 nM (ansB) enzyme. Glutamic-oxalacetic transaminase (Sigma) and malic dehydrogenase (Sigma) were helper enzymes for the coupled enzymatic reactions; 5 and 1 unit were used, respectively. Data were fit to the Michaelis-Menten equation using SigmaPlot (Systat Software Inc). Due to the cooperative nature of hASNase1, this enzyme was analyzed using the Hill equation.

[2] = molecular target: T1, guinea pig L-asparaginase (gpASNase1, GpA), wild type, full length (GpA-FL), SEQ ID NO:1 (Cavia porcellus, UniProt H0W0T5); assay: as above; format: biochemical
T1 construct: Full length GpA (GpA-FL); made in house
T1 sequence (H0W0T5 1-565): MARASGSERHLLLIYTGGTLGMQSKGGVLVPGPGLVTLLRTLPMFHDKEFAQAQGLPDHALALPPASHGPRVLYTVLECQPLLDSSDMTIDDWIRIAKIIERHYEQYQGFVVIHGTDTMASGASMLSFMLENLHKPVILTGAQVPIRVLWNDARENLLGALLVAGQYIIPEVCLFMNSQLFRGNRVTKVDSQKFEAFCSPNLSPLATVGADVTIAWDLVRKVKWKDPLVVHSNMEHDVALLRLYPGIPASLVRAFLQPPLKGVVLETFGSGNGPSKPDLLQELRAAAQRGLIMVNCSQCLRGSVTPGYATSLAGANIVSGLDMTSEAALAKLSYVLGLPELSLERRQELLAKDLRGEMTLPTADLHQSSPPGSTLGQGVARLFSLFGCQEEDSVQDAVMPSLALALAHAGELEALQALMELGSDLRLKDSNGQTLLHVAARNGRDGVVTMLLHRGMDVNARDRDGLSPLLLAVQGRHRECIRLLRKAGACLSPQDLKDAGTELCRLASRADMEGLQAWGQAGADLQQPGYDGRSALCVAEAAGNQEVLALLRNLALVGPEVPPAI
Experimental: as §1

[3] = molecular target: T2, E. coli L-asparaginase ansB (type II) (Escherichia coli, UniProt P00805); assay: as above; format: biochemical; conditions: 50 μM Asn, pH 7.5, 37° C.
T2 construct: made in house
Experimental: as §1

[4] = molecular target: T3, guinea pig L-asparaginase (GpA) variant GpA369-C198A + K225C, SEQ ID NO:54 (Cavia porcellus, UniProt H0W0T5, C198A/K225C); assay: L-asparaginase activity, kobs at 2 mM Asn; format: biochemical
T3 construct: GpA369-C198A + K225C; 99.4%; 71.7%; 54; made in house
Experimental: as §1

[5] = molecular target: T4, guinea pig L-asparaginase (GpA) variant GpA369-C198A + K225C + E340C + E49C, SEQ ID NO:56 (Cavia porcellus, UniProt H0W0T5, C198A/E340C/E49C/K225C); assay: L-asparaginase activity, kobs at 2 mM Asn; format: biochemical
T4 construct: made in house
Experimental: as §1

[6] = molecular target: T5, guinea pig L-asparaginase (GpA) variant GpA369, residues 1-369, SEQ ID NO:5 (Cavia porcellus, UniProt H0W0T5); assay: L-asparaginase activity, kobs at 2 mM Asn; format: biochemical
T5 construct: GpA369; 1-369; SUMO (cleaved yes); made in house
Experimental: as §1

[7] = molecular target: T6, guinea pig L-asparaginase (GpA) variant GpA369-C198A, SEQ ID NO:51 (Cavia porcellus, UniProt H0W0T5, C198A); assay: L-asparaginase activity, kobs at 2 mM Asn; format: biochemical
T6 construct: made in house
Experimental: as §1

[8] = molecular target: T7, guinea pig L-asparaginase (GpA) variant GpA369-C198A + K225C + E340C, SEQ ID NO:55 (Cavia porcellus, UniProt H0W0T5, C198A/E340C/K225C); assay: L-asparaginase activity, kobs at 2 mM Asn; format: biochemical
T7 construct: made in house
Experimental: as §1

[9] = tested on: 64N-hC, shuffled hASNase1/gpASNase1 clone #64 with human C-terminal domain, SEQ ID NO:40; assay: L-asparaginase kinetics, NADH-dependent enzyme-coupled assay; format: biochemical, human / guinea pig; conditions: pH 7.5, 37° C.
Experimental: as §1
(§2) Since the goal was to identify a clone with gpASNase1 kinetic properties but with the highest sequence homology to hASNase1, the four clones, #63, #64, #65 and # SA, were engineered by replacing their shuffled C-terminal domain with the exact sequence of the human C-terminal domain (FIG. 1).
(§3) For determining the precise kinetic properties of 63N-hC, 64N-hC, 65N-hC and SAN-hC, the genes encoding these enzymes were sub-cloned into a pET14b expression vector and expressed in C41 E. coli cells. The purified clones were tested for their L-asparaginase activity (Table 4). E. coli L-asparaginase ansB was also included in order to compare the clones to an L-asparaginase approved for cancer therapy. […] Importantly, the kobs@50 μM values for the humanized clones were also in this range, being 17 sec^−1, 10 sec^−1, 17 sec^−1 and 6 sec^−1 for clones 63N-hC, 64N-hC, 65N-hC and SAN-hC, respectively.

[10] = tested on: 63N-hC, shuffled hASNase1/gpASNase1 clone #63 with human C-terminal domain, SEQ ID NO:39; assay: as above; format: biochemical, human / guinea pig; conditions: pH 7.5, 37° C.
Experimental: as §1, §2, §3

[11] = tested on: 65N-hC, shuffled hASNase1/gpASNase1 clone #65 with human C-terminal domain, SEQ ID NO:41; assay: as above; format: biochemical, human / guinea pig; conditions: pH 7.5, 37° C.
Experimental: as §1, §2, §3

[12] = tested on: SAN-hC, shuffled hASNase1/gpASNase1 clone #SA with human C-terminal domain, SEQ ID NO:42; assay: as above; format: biochemical, human / guinea pig; conditions: pH 7.5, 37° C.
Experimental: as §1, §2, §3

[13] = tested on: E. coli L-asparaginase iiiA; conditions: in words; cited from earlier work
[14] = molecular target: T8, guinea pig L-asparaginase (GpA) variant 40K-PEGylated-GpA369-C198A, SEQ ID NO:51 (Cavia porcellus, UniProt H0W0T5, C198A); assay: L-asparaginase activity, kobs at 2 mM Asn; format: biochemical; conditions: linear PEG
T8 construct: made in house
Experimental: as §1
(§4) Each of the variants listed in Table 9 were recombinantly expressed, purified and PEGylated with one or more of mPEG-10K, mPEG-20K and mPEG-40K (Table 10). As determined by SDS-PAGE analysis, the size of the PEGylated enzymes increased with an increase in the number of active cysteines. For example, using maleimide-PEG10K, GpA369(hum)-C198A migrated at a higher molecular weight after PEGylation (due to the extra 10K Da supplied by the PEG), and GpA369(hum)-C198A+R52C migrated at an even higher apparent molecular weight since this variant can react with two PEG molecules (for a total of an extra 20K Da supplied by two 10K molecules linked to the enzyme). Of note, the GpA369-C198A-K225C-E340C-E49C-Q257C mutant was prepared, expressed, purified and PEGylated with mPEG-10K.

[15] = molecular target: T9, guinea pig L-asparaginase (GpA) variant 10K-PEGylated-GpA369-C198A, SEQ ID NO:51 (Cavia porcellus, UniProt H0W0T5, C198A); assay: L-asparaginase activity, kobs at 2 mM Asn; format: biochemical; conditions: linear PEG
T9 construct: made in house
Experimental: as §1, §4

[16] = molecular target: T10, guinea pig L-asparaginase (GpA) variant 20K-PEGylated-GpA369-C198A, SEQ ID NO:51 (Cavia porcellus, UniProt H0W0T5, C198A); assay: L-asparaginase activity, kobs at 2 mM Asn; format: biochemical; conditions: linear PEG
T10 construct: made in house
Experimental: as §1, §4

[17] = tested on: guinea pig L-asparaginase (gpASNase1, GpA), wild type, SEQ ID NO:1; conditions: Schalk, et al. (2014), cited from earlier work
[18] = tested on: human L-asparaginase type I (hASNase1), SEQ ID NO:2; conditions: in words; Karamitros & Konrad (2014); Schalk, et al. (2014); cited from earlier work
[19] = tested on: hN-gC, chimera of human hASNase1 N-terminal domain (residue 1-361) and guinea pig gpASNase1 C-terminal domain (residue 360-565), SEQ ID NO:38; assay: L-asparaginase kinetics, NADH-dependent enzyme-coupled assay; format: biochemical; conditions: pH 7.5, 37° C.
Text: (§5) To build the clone hN-gC, the sequence corresponding to the N-terminal domain of hASNase1 (hN, residue 1-361) was amplified using the primers NdeI-hA_F1 and gpA360-367_R and the sequence corresponding to the C-terminal domain of gpASNase1 (gC, residue 360-565) was amplified using the primers hA354-361_F and gpA-BamHI_R565. To build the clone gN-hC the sequence corresponding to the N-terminal domain of gpASNase1 (gN, residue 1-359) was amplified using the primers NdeI-gpA_F1 and hA362-369_R and the sequence corresponding to the C-terminal domain of hASNase1 (hC, residue 362-573) was amplified using the primers gpA352-359_F and hA_BamHI_R573. The chimera was then constructed by PCR fusion of fragment hN and gC or gN and hC using the appropriate primers and then subsequently cloned into the pBAD and pET vectors.
as §1
(§6) Accordingly, two chimeras were generated; one, which was referred to as hN-gC and included the human N-terminal domain fused to the guinea pig C-terminal domain, and the second, which was referred to as gN-hC and included the guinea pig N-terminal domain fused to the human C-terminal domain (FIG. 1, Table 3). In vitro kinetic characterization of these chimeras validated the prediction, with hN-gC displaying kinetic properties similar to hASNase1 and gN-hC displaying kinetic properties similar to gpASNase1 (Table 4).

[20] = tested on: gN-hC, chimera of guinea pig gpASNase1 N-terminal domain (residue 1-359) and human hASNase1 C-terminal domain (residue 362-573), SEQ ID NO:37; assay: as above; format: biochemical; conditions: pH 7.5, 37° C.
Text: as §5, §1, §6

[21] = substrate: NC(=O)C[C@H](N)C(=O)O; assay: as above; format: biochemical, E. coli; conditions: other: pH 7.5, 37° C., 3 nM enzyme
Experimental: as §1

Chain of human L-asparaginase 1 (hASNase1), wild type, SEQ ID NO:2 (Q86U10 whole entry): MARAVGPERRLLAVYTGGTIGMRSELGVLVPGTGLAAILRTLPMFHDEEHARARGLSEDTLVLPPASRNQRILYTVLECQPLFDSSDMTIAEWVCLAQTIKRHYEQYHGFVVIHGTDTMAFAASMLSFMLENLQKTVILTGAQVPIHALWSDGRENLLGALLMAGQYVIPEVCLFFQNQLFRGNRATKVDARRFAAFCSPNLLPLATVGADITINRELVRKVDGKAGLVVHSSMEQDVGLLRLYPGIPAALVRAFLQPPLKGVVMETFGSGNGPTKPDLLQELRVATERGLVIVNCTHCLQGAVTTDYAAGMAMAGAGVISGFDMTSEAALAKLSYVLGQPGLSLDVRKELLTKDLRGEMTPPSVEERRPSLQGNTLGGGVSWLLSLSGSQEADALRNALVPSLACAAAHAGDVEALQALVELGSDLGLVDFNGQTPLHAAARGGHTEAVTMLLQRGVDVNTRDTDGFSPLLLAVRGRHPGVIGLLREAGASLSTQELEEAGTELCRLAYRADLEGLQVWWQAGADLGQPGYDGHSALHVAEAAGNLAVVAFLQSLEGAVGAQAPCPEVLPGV
T6 sequence (H0W0T5 1-369 C198A): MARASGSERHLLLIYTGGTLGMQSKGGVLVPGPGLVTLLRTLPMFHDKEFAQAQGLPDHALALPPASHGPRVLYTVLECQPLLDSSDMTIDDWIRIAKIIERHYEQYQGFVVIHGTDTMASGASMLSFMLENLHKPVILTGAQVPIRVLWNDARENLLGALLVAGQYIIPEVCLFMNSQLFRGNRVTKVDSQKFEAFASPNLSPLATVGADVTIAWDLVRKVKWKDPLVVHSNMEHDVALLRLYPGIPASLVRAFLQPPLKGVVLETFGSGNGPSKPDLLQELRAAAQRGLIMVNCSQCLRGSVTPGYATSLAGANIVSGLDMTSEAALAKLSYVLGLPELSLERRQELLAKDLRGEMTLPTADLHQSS
T10 sequence (H0W0T5 1-369 C198A): as above
T9 sequence (H0W0T5 1-369 C198A): as above
T8 sequence (H0W0T5 1-369 C198A): as above
T4 sequence (H0W0T5 1-369 E49C/C198A/K225C/E340C): as the sequence (H0W0T5 1-369 C198A) above, with E49C, K225C, E340C counted along it
T7 sequence (H0W0T5 1-369 C198A/K225C/E340C): as the sequence (H0W0T5 1-369 C198A) above, with K225C, E340C counted along it
T3 sequence (H0W0T5 1-369 C198A/K225C): as the sequence (H0W0T5 1-369 C198A) above, with K225C counted along it

NC(=O)C[C@H](N)C(=O)O [Asn, L-asparagine]
kcat ([1]; Hill-equation (n = 2.1), pH 7.5, 37° C., 50 nM enzyme): 17 ± 0.8 s⁻¹ | Hill coefficient n ([1]; Hill-equation fit): *Kinetic parameters using the Hill-equation (n = 2.1) | kobs @50 μM ([2]; 50 μM Asn, pH 7.5, 37° C.): 20 s⁻¹ and 20 ± 1 s⁻¹ | kobs at 2 mM ASN ([2]; 2 mM Asn, full length GpA): 41 s⁻¹ | Km ([2]; pH 7.5, 37° C., 10 nM enzyme): 50 ± 7 µM | kcat ([2]; pH 7.5, 37° C., 10 nM enzyme): 41 ± 2 s⁻¹ | kobs @50 μM [3]: 41 ± 0.3 s⁻¹ | kobs at 2 mM ASN [4]: 41.4 s⁻¹ | kobs at 2 mM ASN [5]: 41.6 s⁻¹ | kobs at 2 mM ASN [6]: 44 s⁻¹ | kobs at 2 mM ASN [7]: 43.3 s⁻¹ | kobs at 2 mM ASN [8]: 42.4 s⁻¹ | kobs @50 μM ([9]; 50 μM Asn): 10 s⁻¹ and 10 ± 1 s⁻¹ | kcat/Km [9]: 0.3 sec^−1μM^−1 | Km ([9]; 10 nM enzyme): 202 ± 17 µM | kcat ([9]; 10 nM enzyme): 60 ± 2 s⁻¹ | kobs @50 μM ([10]; 50 μM Asn): 17 s⁻¹ and 17 ± 0.5 s⁻¹ | kcat/Km [10]: 0.7 sec^−1μM^−1 | Km ([10]; 10 nM enzyme): 47 µM | kcat ([10]; 10 nM enzyme): 32 ± 0.6 s⁻¹ | kobs @50 μM ([11]; 50 μM Asn): 17 s⁻¹ and 17 ± 1 s⁻¹ | kcat/Km [11]: 0.5 sec^−1μM^−1 | Km ([11]; 10 nM enzyme): 74 µM | kcat ([11]; 10 nM enzyme): 40 ± 1 s⁻¹ | kobs @50 μM ([12]; 50 μM Asn): 6 s⁻¹ and 6 ± 1 s⁻¹ | kcat/Km [12]: 0.2 sec^−1μM^−1 | Km ([12]; 10 nM enzyme): 165 µM | kcat ([12]; 10 nM enzyme): 32 ± 2 s⁻¹ | Km value for Asn [13]: very high | kobs at 2 mM ASN [14]: 76.5 s⁻¹ | kobs at 2 mM ASN [15]: 83.3 s⁻¹ | kobs at 2 mM ASN [16]: 83.7 s⁻¹ | reaction rate (kcat) [17]: approximately 39 s^−1 | Km for Asn ([17]; in words): in the micromolar range | Km ([17]; read-out: Km for Asn): 58 µM | Km for Asn [18]: in the millimolar range | kcat/Km [19]: 0.004 sec^−1μM^−1 | Km ([19]; 50 nM enzyme): 3800 ± 120 µM | kcat ([19]; 50 nM enzyme): 14 ± 0.5 s⁻¹ | kobs @50 μM ([20]; 50 μM Asn): 14 ± 1 s⁻¹ | kcat/Km [20]: 0.7 sec^−1μM^−1 | Km ([20]; 10 nM enzyme): 35 µM | kcat ([20]; 10 nM enzyme): 24 ± 1 s⁻¹

B1: E. coli L-asparaginase ansB (type II) (Escherichia coli K-12) (protein)
chain: LPNITILATGGTIAGGGDSATKSNYTVGKVGVENLVNAVPQLKDIANVKGEQVVNIGSQDMNDNVWLTLAKKINTDCDKTDGFVITHGTDTMEETAYFLDLTVKCDKPVVMVGAMRPSTSMSADGPFNLYNAVVTAADKASANRGVLVVMNDTVLDGRDVTKTNTTDVATFKSVNYGPLGYIHNGKIDYQRTPARKHTSDTPFDVSKLNELPKVGIVYNYANASDLPAKALVDAGYDGIVSAGVGNGNLYKSVFDTLATAAKTGTAVVRSSRVPTGATTQDAEVDDAKYGFVASGTLNPQKARVLLQLALTQTKDPQQIQQIFNQY
notes: made in house
Km [21]: 11 ± 1 µM | kcat [21]: 48 ± 1 s⁻¹ | kcat/Km [21]: 4.4e+06 M⁻¹ s⁻¹
